In the supplement of paper PMC11451515:

System: P12-Ichikawa
Experiment: cell viability relative to DMSO control; higher = less cytotoxic
Conditions: 48 h
Summary of the method: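 Viability is a per-plate percentage relative to DMSO wells, with cell-free wells as background. CellTiter-Glo One luminescence was read after 48 h at 37°C on 1536-well plates (5 μl) of NOMO1 or SEM (500 cells/well) or P12-Ichikawa (1000 cells/well) leukemia cells. The cells had been adapted for at least four passages in each medium and pin-dosed with library compounds in DMSO from 47 μM to 0.79 nM in 11 threefold steps.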

[1] = HPLM + 10% dialyzed FBS, 0.000781 µM
[2] = HPLM + 10% dialyzed FBS, 0.00234 µM
[3] = HPLM + 10% dialyzed FBS, 0.00702 µM
[4] = HPLM + 10% dialyzed FBS, 0.0211 µM
[5] = HPLM + 10% dialyzed FBS, 0.0632 µM
[6] = HPLM + 10% dialyzed FBS, 0.19 µM
[7] = HPLM + 10% dialyzed FBS, 0.569 µM
[8] = HPLM + 10% dialyzed FBS, 1.71 µM
[9] = HPLM + 10% dialyzed FBS, 5.12 µM
[10] = HPLM + 10% dialyzed FBS, 15.4 µM
[11] = HPLM + 10% dialyzed FBS, 46.1 µM
[12] = RPMI 5 mM glucose + 10% FBS, 0.000781 µM
[13] = RPMI 5 mM glucose + 10% FBS, 0.00234 µM
[14] = RPMI 5 mM glucose + 10% FBS, 0.00702 µM
[15] = RPMI 5 mM glucose + 10% FBS, 0.0211 µM
[16] = RPMI 5 mM glucose + 10% FBS, 0.0632 µM
[17] = RPMI 5 mM glucose + 10% FBS, 0.19 µM
[18] = RPMI 5 mM glucose + 10% FBS, 0.569 µM
[19] = RPMI 5 mM glucose + 10% FBS, 1.71 µM
[20] = RPMI 5 mM glucose + 10% FBS, 5.12 µM
[21] = RPMI 5 mM glucose + 10% FBS, 15.4 µM
[22] = RPMI 5 mM glucose + 10% FBS, 46.1 µM
[23] = RPMI 5 mM glucose + 10% dialyzed FBS, 0.000781 µM
[24] = RPMI 5 mM glucose + 10% dialyzed FBS, 0.00234 µM
[25] = RPMI 5 mM glucose + 10% dialyzed FBS, 0.00702 µM
[26] = RPMI 5 mM glucose + 10% dialyzed FBS, 0.0211 µM
[27] = RPMI 5 mM glucose + 10% dialyzed FBS, 0.0632 µM
[28] = RPMI 5 mM glucose + 10% dialyzed FBS, 0.19 µM
[29] = RPMI 5 mM glucose + 10% dialyzed FBS, 0.569 µM
[30] = RPMI 5 mM glucose + 10% dialyzed FBS, 1.71 µM
[31] = RPMI 5 mM glucose + 10% dialyzed FBS, 5.12 µM
[32] = RPMI 5 mM glucose + 10% dialyzed FBS, 15.4 µM
[33] = RPMI 5 mM glucose + 10% dialyzed FBS, 46.1 µM

| Structure (SMILES) | cell viability [1] [%] | cell viability [2] [%] | cell viability [3] [%] | cell viability [4] [%] | cell viability [5] [%] | cell viability [6] [%] | cell viability [7] [%] | cell viability [8] [%] | cell viability [9] [%] | cell viability [10] [%] | cell viability [11] [%] | cell viability [12] [%] | cell viability [13] [%] | cell viability [14] [%] | cell viability [15] [%] | cell viability [16] [%] | cell viability [17] [%] | cell viability [18] [%] | cell viability [19] [%] | cell viability [20] [%] | cell viability [21] [%] | cell viability [22] [%] | cell viability [23] [%] | cell viability [24] [%] | cell viability [25] [%] | cell viability [26] [%] | cell viability [27] [%] | cell viability [28] [%] | cell viability [29] [%] | cell viability [30] [%] | cell viability [31] [%] | cell viability [32] [%] | cell viability [33] [%] |
| --- | --- | --- | --- | --- | --- | --- | --- | --- | --- | --- | --- | --- | --- | --- | --- | --- | --- | --- | --- | --- | --- | --- | --- | --- | --- | --- | --- | --- | --- | --- | --- | --- | --- |
| Cc1cccc(/C=N/Nc2cc(N3CCOCC3)nc(OCCc3ccccn3)n2)c1 | 95.8 | 102 | 92 | 104 | 103 | 96.7 | 89.5 | 79 | 67.6 | 42 | 28.4 | 92 | 97.5 | 92.7 | 99 | 100 | 96.8 | 79.5 | 64.3 | 53.2 | 45 | 26.4 | 90 | 89.4 | 88.5 | 89.5 | 89.8 | 80.6 | 71.5 | 60.7 | 52.3 | 40 | 24.9 |
| CCN1CCCC1CNC(=O)c1cc([S+](N)(=O)[O-])ccc1OC (configuration not stated) | 111 | 115 | 119 | 108 | 125 | 121 | 116 | 118 | 113 | 120 | 109 | – | – | – | – | – | – | – | – | – | – | – | 107 | 117 | 121 | 117 | 126 | 117 | 124 | 126 | 124 | 128 | 117 |
| CC(C)Oc1ccc(C(=O)N[C@H](CNC(=O)CN(C)C)Cc2ccc(-c3cn4cccc([C@H](C)O)c4n3)cc2)cc1Cl | 121 | 115 | 118 | 115 | 106 | 101 | 107 | 78.1 | 48.3 | 45.8 | 54.2 | 117 | 120 | 118 | 111 | 115 | 110 | 103 | 41.2 | 25.3 | 23 | 26.6 | 108 | 117 | 112 | 110 | 102 | 101 | 97.9 | 63 | 38.4 | 31.6 | 32.7 |
| COc1cc(N2CCC(N(C)C)CC2)ccc1Nc1ncc(Cl)c(Nc2ccccc2P(C)(C)=O)n1 | 110 | 115 | 110 | 113 | 117 | 115 | 87.9 | 40.5 | 13.6 | 18.3 | 30.7 | 112 | 118 | 123 | 122 | 121 | 104 | 102 | 82.2 | 11.9 | 12.5 | 23.6 | 111 | 113 | 117 | 124 | 126 | 127 | 107 | 106 | 30.8 | 19.3 | 31.5 |
| COC1=CC=C2/C3=N/CCN3\C(=N/C2=C1OC)NC(=O)C4=CC=CN=C4 | 113 | 124 | 110 | 117 | 129 | 118 | 113 | 123 | 108 | 92.6 | 89.7 | 108 | 110 | 115 | 108 | 114 | 115 | 104 | 102 | 78.8 | 73.4 | 58 | 111 | 120 | 115 | 119 | 115 | 117 | 111 | 105 | 97.3 | 86.1 | 65.9 |
| O=c1[nH]c(=O)n(C2CCCO2)cc1F (configuration not stated) | 122 | 124 | 126 | 125 | 125 | 124 | 123 | 123 | 112 | 110 | 116 | – | – | – | – | – | – | – | – | – | – | – | 88.6 | 126 | 120 | 128 | 130 | 120 | 122 | 121 | 119 | 108 | 115 |
| COC(=O)\C1=C\CCN(C)C1 | 111 | 106 | 105 | 100 | 103 | 108 | 96.9 | 102 | 93.7 | 102 | 105 | 102 | 115 | 113 | 104 | 102 | 108 | 111 | 115 | 107 | 98.4 | 101 | 101 | 101 | 97 | 96.1 | 96.3 | 99.8 | 102 | 101 | 93 | 99 | 93.3 |
| CC(C)(O)/C=C\C(=O)[C@](C)(O)[C@H]1[C@H](O)C[C@]2(C)[C@@H]3CC=C4[C@@H](C=C(O)C(=O)C4(C)C)[C@]3(C)C(=O)C[C@@]12C | 94.8 | 106 | 103 | 99.6 | 99.7 | 50.9 | 15.1 | 18.4 | 21.6 | 12.9 | 4.2 | 113 | 105 | 111 | 107 | 97.9 | 47.3 | 12.4 | 15.1 | 17.1 | 6.22 | 2.85 | 93.9 | 98.5 | 93.9 | 104 | 102 | 43.8 | 14.6 | 17.9 | 20.9 | 6.49 | 3.06 |
